Reference: US11440923B2, “Substituted macrocyclic indole derivatives” (Bayer Aktiengesellschaft, priority 2017, dated 2022)
Where a name gives a salt, the structure may show the parent alone. Read-outs that look alike come from different tables or passages of the source.

Legend:
MCL-1 = MCL-1 (Homo sapiens (Human), UniProt Q07820, K194A/K197A/R201A); assay: Protein-protein interaction assay MCL-1/Noxa BH3 peptide (MCL-1 assay, TR-FRET); format: binding; details: MCL-1 Assay IC50 (median)
Outline: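 Competition TR-FRET with MBP-MCL-1 (aa 173-321) at 1 nM final and biotinylated Noxa BH3 peptide, pH 7 Tris buffer. Compounds pre-incubated 10 min at 22° C., then 1 h at 22° C. and overnight at 4° C. 665/620 nm ratio normalized to DMSO; IC50 from 4-parameter fit.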

SUDHL5 cells = assay: Antiproliferation assay SUDHL5 (Assay 7); format: cell-based
Outline: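 Anti-proliferative effect was measured by CellTiter-Glo ATP luminescence after 72 h compound exposure at 37° C, following overnight plating. IC50s were derived using a parallel time-zero plate and DMSO-treated controls as reference points.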

[1] = Homo sapiens, SU-DHL-5, 72 h, 72 h, CellTiter-Glo; read-out: Antiproli SUDHL5 IC50 (median)
[2] = 72 h, CellTiter-Glo; read-out: Antiproli SUDHL5 IC50 (median)
[3] = read-out: Antiproli SUDHL5 IC50 (median); 72 h, CellTiter-Glo

MCL-1, sequence (Q07820 whole entry, looked up, stated change not applied, the tested form may be a part): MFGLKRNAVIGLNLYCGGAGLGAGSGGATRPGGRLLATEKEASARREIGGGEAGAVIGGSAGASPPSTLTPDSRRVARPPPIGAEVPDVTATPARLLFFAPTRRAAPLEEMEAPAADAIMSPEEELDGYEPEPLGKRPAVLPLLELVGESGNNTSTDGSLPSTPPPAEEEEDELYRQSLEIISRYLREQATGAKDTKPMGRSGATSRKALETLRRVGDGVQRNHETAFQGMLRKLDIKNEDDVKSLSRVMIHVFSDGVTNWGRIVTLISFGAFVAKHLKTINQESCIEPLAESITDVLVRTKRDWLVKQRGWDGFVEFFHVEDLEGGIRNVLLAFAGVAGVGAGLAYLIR

| Structure (SMILES) | IC50 (MCL-1) | IC50 (SUDHL5 cells; [1]) | IC50 (SUDHL5 cells; [2]) | IC50 (SUDHL5 cells; [3]) |
| --- | --- | --- | --- | --- |
| CCc1c2c(nn1C)C(CCN1CCOCC1)OCCCCn1c(C(=O)O)c(CCCOc3cccc4cc(F)ccc34)c3ccc(Cl)c-2c31 (racemic) [Example 22, (rac)-4-chloro-3-ethyl-7-{3-[(6-fluoronaphthalen-1-yl)oxy]propyl}-2-methyl-15-[2-(morpholin-4-yl)ethyl]-2,10,11,12,13,15-hexahydropyrazolo[4′,3′:9,10][1,6]oxazacycloundecino[8,7,6-hi]indole-8-carboxylic Acid] | 1.5 nM | 13 nM | – | – |
| CCc1c2c(nn1C)C(CCN1CCOCC1)OCCCCn1c(C(=O)O)c(CCCOc3cccc4ccccc34)c3ccc(F)c-2c31 (racemic) [Example 10, (rac)-3-ethyl-4-fluoro-2-methyl-15-[2-(morpholin-4-yl)ethyl]-7-[3-(naphthalen-1-yloxy)propyl]-2,10,11,12,13,15-hexahydropyrazolo[4′,3′:9,10][1,6]oxazacycloundecino[8,7,6-hi]indole-8-carboxylic Acid] | 0.72 nM | 160 nM | – | – |
| CCc1c2c(nn1C)C(CCN1CCOCC1)OCCCCn1c(C(=O)O)c(CCCOc3cccc4cc(F)ccc34)c3ccc(F)c-2c31 (racemic) [Example 49, (rac)-3-Ethyl-4-fluoro-7-{3-[(6-fluoronaphthalen-1-yl)oxy]propyl}-2-methyl-(15-rac)-[2-(morpholin-4-yl)ethyl]-2,10,11,12,13,15-hexahydropyrazolo[4′,3′:9,10][1,6]oxazacycloundecino[8,7,6-hi]indole-8-carboxylic Acid] | 0.85 nM | 42 nM | – | – |
| CCc1c2c(nn1C)C(CCO)OCCCCn1c(C(=O)O)c(CCCOc3cccc4cc(F)ccc34)c3ccc(Cl)c-2c31 (single isomer, unassigned; enantiomer 2) [Example 46, (−)-4-chloro-3-ethyl-7-{3-[(6-fluoronaphthalen-1-yl)oxy]propyl}-15-(2-hydroxyethyl)-2-methyl-2,10,11,12,13,15-hexahydropyrazolo[4′,3′:9,10][1,6]oxazacycloundecino[8,7,6-hi]indole-8-carboxylic Acid (Enantiomer 2)] | 36 nM | – | – | – |
| CCc1c2c(nn1C)C(CCC1CCOCC1)OCCCCn1c(C(=O)O)c(CCCOc3cccc4cc(F)ccc34)c3ccc(Cl)c-2c31 (single isomer, unassigned; enantiomer 2) [Example 62, (−)-4-chloro-3-ethyl-7-{3-[(6-fluoronaphthalen-1-yl)oxy]propyl}-2-methyl-15-[2-(oxan-4-yl)ethyl]-2,10,11,12,13,15-hexahydropyrazolo[4′,3′:9,10][1,6]oxazacycloundecino[8,7,6-hi]indole-8-carboxylic Acid (Enantiomer 2)] | 120 nM | – | 5300 nM | – |
| CCc1c2c(nn1C)C(CCOC)OCCCCn1c(C(=O)O)c(CCCOc3cccc4cc(F)ccc34)c3ccc(Cl)c-2c31 (racemic) [Example 41, (rac)-4-chloro-3-ethyl-7-{3-[(6-fluoronaphthalen-1-yl)oxy]propyl}-(15-rac)-(2-methoxyethyl)-2-methyl-2,10,11,12,13,15-hexahydropyrazolo[4′,3′:9,10][1,6]oxazacycloundecino[8,7,6-hi]indole-8-carboxylic Acid] | 0.52 nM | 160 nM | – | – |
| CCc1c2c(nn1C)C(CCN1CCOCC1)OCCCCn1c(C(=O)O)c(CCCOc3cccc4cc(F)ccc34)c3ccc(F)c-2c31 (single isomer, unassigned; enantiomer 2) [Example 51, (−)-3-ethyl-4-fluoro-7-{3-[(6-fluoronaphthalen-1-yl)oxy]propyl}-2-methyl-15-[2-(morpholin-4-yl)ethyl]-2,10,11,12,13,15-hexahydropyrazolo[4′,3′:9,10][1,6]oxazacycloundecino[8,7,6-hi]indole-8-carboxylic Acid (Enantiomer 2)] | 60 nM | – | 2300 nM | – |
| CCc1c2c(nn1C)C(C1CC1)OCCCCn1c(C(=O)O)c(CCCOc3cccc4cc(F)ccc34)c3ccc(Cl)c-2c31 (racemic) [Example 38, (rac)-4-chloro-(15-rac)-cyclopropyl-3-ethyl-7-{3-[(6-fluoronaphthalen-1-yl)oxy]propyl}-2-methyl-2,10,11,12,13,15-hexahydropyrazolo[4′,3′:9,10][1,6]oxazacycloundecino[8,7,6-hi]indole-8-carboxylic Acid] | 1.3 nM | – | – | – |
| Cc1c2c(nn1C)C(CCN1CCOCC1)OCCCCn1c(C(=O)O)c(CCCOc3cccc4cc(F)ccc34)c3ccc(Cl)c-2c31 (single isomer, unassigned; enantiomer 2) [Example 18, 4-chloro-7-{3-[(6-fluoronaphthalen-1-yl)oxy]propyl}-2,3-dimethyl-15-[2-(morpholin-4-yl)ethyl]-2,10,11,12,13,15-hexahydropyrazolo[4′,3′:9,10][1,6]oxazacycloundecino[8,7,6-hi]indole-8-carboxylic Acid (Enantiomer 2)] | 42 nM | – | – | – |
| CCc1c2c(nn1C)C(CCN1CCOCC1)OCCCCn1c(C(=O)O)c(CCCOc3cccc4ccccc34)c3ccc(F)c-2c31 (single isomer, unassigned; enantiomer 2) [Example 12, 3-ethyl-4-fluoro-2-methyl-15-[2-(morpholin-4-yl)ethyl]-7-{3-[(naphthalen-1-yl)oxy]propyl}-2,10,11,12,13,15-hexahydropyrazolo[4′,3′:9,10][1,6]oxazacycloundecino[8,7,6-hi]indole-8-carboxylic Acid—N-ethylethanamine Salt (Enantiomer 2)] | – | – | – | 2600 nM |
| CCc1c2c(nn1C)C(CCN1CC(F)(F)C1)OCCCCn1c(C(=O)O)c(CCCOc3cccc4cc(F)ccc34)c3ccc(Cl)c-2c31 (single isomer, unassigned; (+)) [Example 78, (+)-4-chloro-15-[2-(3,3-difluoroazetidin-1-yl)ethyl]-3-ethyl-7-{3-[(6-fluoronaphthalen-1-yl)oxy]propyl}-2-methyl-2,10,11,12,13,15-hexahydropyrazolo[4′,3′:9,10][1,6]oxazacycloundecino[8,7,6-hi]indole-8-carboxylic Acid—N-ethylethanamine Salt] | – | – | 16 nM | – |
| CCc1c2c(nn1C)C(CCN1CCC(F)(F)C1)OCCCCn1c(C(=O)O)c(CCCOc3cccc4cc(F)ccc34)c3ccc(Cl)c-2c31 (single isomer, unassigned; enantiomer 1) [Example 56, 4-chloro-15-[2-(3,3-difluoropyrrolidin-1-yl)ethyl]-3-ethyl-7-{3-[(6-fluoronaphthalen-1-yl)oxy]propyl}-2-methyl-2,10,11,12,13,15-hexahydropyrazolo[4′,3′:9,10][1,6]oxazacycloundecino[8,7,6-hi]indole-8-carboxylic Acid—N-ethylethanamine Salt (Enantiomer 1)] | – | – | – | 87 nM |
| CCc1c2c(nn1C)C(CCC1CCOCC1)OCCCCn1c(C(=O)O)c(CCCOc3cccc4cc(F)ccc34)c3ccc(Cl)c-2c31 (single isomer, unassigned; enantiomer 1) [Example 63, (+)-4-chloro-3-ethyl-7-{3-[(6-fluoronaphthalen-1-yl)oxy]propyl}-2-methyl-15-[2-(oxan-4-yl)ethyl]-2,10,11,12,13,15-hexahydropyrazolo[4′,3′:9,10][1,6]oxazacycloundecino[8,7,6-hi]indole-8-carboxylic Acid—N-ethylethanamine Salt (Enantiomer 1)] | – | – | – | 42 nM |
